US5034419A, “N-cycloalkylalkylamines, process for their preparation, their use as medicament and their synthesis intermediates” (L'Oreal, priority 1988, dated 1991)
Like-named read-outs stand apart in the source and are kept apart here.

Legend:
delta receptors = molecular target: T1, delta receptors (Cavia porcellus, UniProt A0A286XTF2); experiment: in vitro affinity for delta receptors; format: binding; details: Table 3; read-out: delta rec. IC50
T1 construct: from tissue
Method: (§1) The "in vitro" study of the affinity of the compounds according to the invention for the three opium receptors is carried out in accordance with the technique described by F. Roman and coll. in J. Pharm. Pharmacol. 1987, 39, p. 404-407 and the study of the affinity for PCP receptors is carried out in accordance with the technique described by Vignon J. and coll. in "Brain Res." 1983; 280, p. 194-7 and 1986; 378, p. 133-41.
(§2) The results shown in table 3 are, for each receptor studied, expressed in IC50, which are the nanomolar concentrations of the dissolved products which are capable of inhibiting 50% of the bonds between the specific radioactive ligand to the receptor under consideration.

sigma receptors = molecular target: T2, sigma receptors (Cavia porcellus, UniProt Q60492); experiment: in vitro affinity for sigma receptors, competition with (+)[3H]SKF10,047; format: binding, guinea-pig (cerebral membranes)
T2 construct: sigma receptors of the cerebral membranes of the guinea-pig used in this study; from tissue; host or cells: guinea-pig cerebral membranes
T2 sequence (Q60492 whole entry): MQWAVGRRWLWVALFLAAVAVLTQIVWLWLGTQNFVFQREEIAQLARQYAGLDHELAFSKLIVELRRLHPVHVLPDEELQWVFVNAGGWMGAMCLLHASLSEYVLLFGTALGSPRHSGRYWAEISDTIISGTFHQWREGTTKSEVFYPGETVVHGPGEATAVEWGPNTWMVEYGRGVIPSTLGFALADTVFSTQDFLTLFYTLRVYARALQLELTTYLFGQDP
Method: The test is carried out by incubating solutions of suitable concentrations of the products with standard samples of membranes and determining, after filtration, the residual radioactivity of the solution.

[1] = inhibition of gastro-duodenal ulcers caused by cysteamine; format: in vivo, Wistar female rats; details: Rattus norvegicus; cysteamine hydrochloride 400 mg/kg s.c.; products orally or subcutaneously; read-out: ED50 - ulceration scores
Method: This activity is set in relation to the capacity of the products to cause an increase in the alkaline secretion in the duodenum in anaesthetized animals.
In this test, groups of 6 Wistar female rats with an average weight of 200 g receive a subcutaneous injection of cysteamine hydrochloride in an amount of 400 mg/kg. The products under investigation are administered orally or subcutaneously 1 h or, respectively, 30 minutes before the ulcerogenic agent.
Ten hours thereafter, the rats are sacrificed by elongation and their stomach and duodenum are removed, rinsed with physiological solution and mounted on a card. The presence of ulcers in the antro-pyloric-duodenal zone is examined and their area, expressed in mm^2, is evaluated by multiplying the two main perpendicular axis of the lesion. Statistical analysis of the results is performed with the aid of the Student test for the ulcerated areas in comparison with a control group receiving only excipient.
The results presented in table 5 are expressed in ED50 of ulceration scores, which are the effective doses, expressed in mg/kg product, which cause inhibition of 50% of the ulcerations caused by cysteamine.

[2] = antagonism of amnesia caused by scopolamine, passive avoidance test; format: in vivo, mice; details: for % antagonism of the amnesia: 0.25 mg/kg orally, scopolamine 1 mg/kg i.p. 30 minutes later, latency after 24 hours; for antagonism of amnesia caused by scopolamine (in words): mouse, in vivo
Method: The animal is introduced into the illuminated compartment, and when it moves to the dark compartment it receives an electric current (0.35 mA) through the base until it returns to the illuminated compartment, from where it is then removed.
After 24 hours, the operation is repeated. The mouse is replaced in the apparatus and it avoids entering into the dark compartment. The time which elapses before passage into this compartment is recorded; under the conditions of the experiment, the efficacy of the compounds under investigation in antagonizing the amnesic effect of scopolamine, which is administered intraperitoneally in an amount of 1 mg/kg 30 minutes before the animal is first introduced into the apparatus, can be evaluated.
In control mice which have received only scopolamine, the time elapsed before passage after 24 hours is remarkably lower than that observed in the untreated animals.
The study of the products according to the invention by this method is performed on groups of 18 mice and the products are administered orally on the first day in an amount of 0.25 mg/kg 30 minutes before administration of scopolamine i.p.

[3] = protection from convulsions induced by picrotoxin in mice; format: in vivo, "Swiss" male mice; details: 50 mg/kg i.p.; picrotoxin 24 mg/kg i.p. 30 minutes later; * p<0.05, ** p<0.01, *** p<0.001
Method: b) The psychotropic properties of the compounds were determined by the protection from convulsions induced by picrotoxin in mice, which was realized in accordance with a method derived from that of Krall and coll., "Epilepsia", 1978, 19, p. 409-428.
The administration of picrotoxin to animals causes a convulsive attack characterized by a myoclonic extension syndrome followed by extension of the limbs leading to death of the animals. Certain substances, in particular those which act on the GABA/benzodiazepine/Cl-ionophor complex, provide protection of the animals from these convulsive attacks.
In practice, the study is carried out on groups of 10 "Swiss" male mice weighing about 20 g, to which the product under investigation is administered in aqueous solution either intraperitoneally (i.p.) or orally (p.o.).
An intraperitoneal injection of a solution of picrotoxin in an amount of 24 mg/kg in a volume of 0.2 ml per animal is then performed, either 30 minutes after intraperitoneal administration of the product or 60 minutes after oral administration of the product, the dose of the product injected in this way causing a clonic attack which leads to death of the untreated animals. Under the conditions of the test, suppression of the tonic extension phase is found in the animals treated.
The results are expressed:
either as the percentage of animals protected from this phase under the action of 50 mg/kg compound under investigation administered i.p. or 100 mg/kg p.o.,
or in the ED50 for each of these groups, which is the effective dose of the compound under investigation expressed in mg/kg which protects 50% of animals from this extension phase, the significance value of the results generally being indicated in the following manner: […]

PCP receptors = experiment: in vitro affinity for phencyclidine (PCP) receptors; format: binding; details: Table 3; read-out: PCP rec. IC50
Method: as §1, §2

mu receptors = experiment: in vitro affinity for mu receptors; format: binding; details: for IC50: Table 3, read-out: mu rec. IC50
Method: as §1, §2

[4] = alkaline duodenal secretion in anaesthetized rats; format: in vivo, male rats; details: 1 mg/kg intravenously; for Increase AUC 1 2 h: AUC of alkaline flow rate 1 h to 2 h compared with control animals; for Increase in secretion: maximum increase, anaesthetized rats
Method: The activity of the products on alkaline duodenal secretion in rats is studied in accordance with a technique described by FLEMSTROM and coll. Gastroenterology, 1983, 84, p. 787-794.
The test comprises determination every 10 minutes, for 3 hours and in situ, of the alkaline secretion of a duodenal segment 12 mm in length, with no Brunner glands and situated 2 cm from the pylorus.
The study is performed on male rats of about 350 g previously anaesthetized, in which the duodenal segment chosen in cannulated by 2 glass tubes in accordance with the technique described by the author, and in which a luminal perfusate consisting of 5 ml isotonic NaCl solution is maintained at 37° C.
The variations in the intraluminal alkaline secretion are measured by pHmetry every 10 minutes by means of an automated system maintaining a constant pH of 7.4 by in situ addition of a 0.04N solution of hydrochloric acid. Fifty minutes after the start of the experiment, the products under investigation are administered intravenously or intraarterially in an amount of 1 mg/kg and the volume of hydrochloric acid introduced, which is a reflection of the in situ increase in alkaline secretion, is measured every 10 minutes for 3 hours with respect to the start of the experiment, that is to say for 130 minutes after injection of the product under investigation.
The following are determined for each product:
a) The maximum increase in secretion in micro-eq/cm/h under the action of the drug, taking into account the basal secretion of the same animals observed for 50 minutes before administration of the product.
The results are shown in table 6, which follows, for the products (I) according to the invention administered intravenously in an amount of 1 mg/kg.

kappa receptors = molecular target: T3, kappa receptors (Cavia porcellus, UniProt P41144); experiment: in vitro affinity for kappa receptors; format: binding
T3 construct: from tissue
T3 sequence (P41144 whole entry): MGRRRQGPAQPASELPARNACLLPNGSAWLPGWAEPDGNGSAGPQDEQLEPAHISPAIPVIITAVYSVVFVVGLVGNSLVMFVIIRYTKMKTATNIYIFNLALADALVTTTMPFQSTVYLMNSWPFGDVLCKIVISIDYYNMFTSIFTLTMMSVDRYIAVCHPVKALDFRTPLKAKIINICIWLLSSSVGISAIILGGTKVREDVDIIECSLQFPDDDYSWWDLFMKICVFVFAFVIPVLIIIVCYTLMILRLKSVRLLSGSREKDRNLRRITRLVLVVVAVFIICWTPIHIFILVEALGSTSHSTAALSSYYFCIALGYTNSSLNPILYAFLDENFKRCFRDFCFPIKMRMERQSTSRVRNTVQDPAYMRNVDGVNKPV
Method: as §1, §2

animals = details: in vivo; cited from earlier work
[5] = Table 3, read-out: kappa rec. IC50
[6] = Table 2, (+)[3H]SKF10,047, guinea-pig cerebral membranes, read-out: IC50 (bonding affinity to sigma receptors)

T1 sequence (A0A286XTF2 1-366): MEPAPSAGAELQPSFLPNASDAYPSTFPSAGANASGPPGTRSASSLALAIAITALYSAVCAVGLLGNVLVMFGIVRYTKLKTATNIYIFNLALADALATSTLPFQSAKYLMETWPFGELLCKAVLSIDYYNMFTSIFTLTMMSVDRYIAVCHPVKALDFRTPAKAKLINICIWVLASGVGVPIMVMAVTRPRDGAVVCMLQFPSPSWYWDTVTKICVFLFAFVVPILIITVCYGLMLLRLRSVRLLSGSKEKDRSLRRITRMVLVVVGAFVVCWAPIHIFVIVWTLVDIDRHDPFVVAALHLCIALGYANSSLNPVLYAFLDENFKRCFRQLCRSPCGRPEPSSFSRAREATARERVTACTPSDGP

## CCC(CC=Cc1ccccc1)(c1ccccc1)N(C)CC1CC1 (stereo not drawn) [Example 9, α-Cinnamyl-N-cyclopropylmethyl-α-ethyl-N-methyl-benzylamine]
Delta receptors
  IC50: 83.8 µM
Sigma receptors; IC50 (bonding affinity to sigma receptors), Table 2, (+)[3H]SKF10,047, guinea-pig cerebral membranes
  IC50: 0.024 µM
Sigma receptors; sigma rec. IC50, Table 3
  IC50: 0.024 µM
[1]
  ED50: 26.2 mg/kg
[2]
  % antagonism of the amnesia: 76%
  antagonism of amnesia caused by scopolamine (in words): conclusive of an activity of the products according to the invention at a low dose
[3]
  i.p.: % prot. (inhibition of convulsions induced by picrotoxin): 90%
PCP receptors
  IC50: 3.67 µM
Mu receptors
  IC50: 15.8 µM
[4]
  Increase AUC 1 2 h: 97.6
  Increase in secretion: 10.0 micro-eq/cm/h
Kappa receptors; [5]
  IC50: 6.2 µM

## CCC(CC=Cc1ccccc1)(c1ccccc1)N(C)CC1CCCCC1 (stereo not drawn) [Example 7, α-Cinnamyl-N-cyclohexylmethyl-α-ethyl-N-methyl-benzylamine]
Delta receptors
  IC50: 51.8 µM
Sigma receptors; [6]
  IC50: 0.032 µM
[1]
  ED50: 10.5 mg/kg
[2]
  % antagonism of the amnesia: 56%
PCP receptors
  IC50: 50.8 µM
Mu receptors
  IC50: > 100 µM
Mu receptors; relative to IC50 of sigma affinity = 1
  mu rec. relative value of the IC50: > 1000
[4]
  Increase AUC 1 2 h: 52.8
  Increase in secretion: 6.0 micro-eq/cm/h
Kappa receptors; [5]
  IC50: 72.8 µM

## Cc1ccccc1NC(=N)Nc1ccccc1C [DTG, ditolylguanidine, reference compound]
Delta receptors
  IC50: 33.2 µM
animals
  toxicity on animals (in words): excessive toxicity
Kappa receptors; kappa rec. IC50, Table 3
  IC50: 6.49 µM

## CCC(CC=Cc1ccccc1)(c1cccs1)N(C)CC1CC1 (stereo not drawn) [Example 21, α-Cinnamyl-N-cyclopropylmethyl-α-ethyl-N-methyl-2-thiophenemethylamine]
Delta receptors
  IC50: 7.39 µM
Sigma receptors; [6]
  IC50: 0.095 µM
[1]
  ED50: 48.2 mg/kg
[3]
  i.p.: % prot. (inhibition of convulsions induced by picrotoxin): 50%
PCP receptors
  IC50: 6.28 µM
Mu receptors
  IC50: 1.54 µM
Kappa receptors; [5]
  IC50: 1.2 µM

## CCC(CC=Cc1ccccc1)(c1ccccc1)N(C)CC1CCC1 (stereo not drawn) [Example 12, α-Cinnamyl-N-cyclobutylmethyl-α-ethyl-N-methyl-benzylamine]
Delta receptors
  IC50: 85.6 µM
Sigma receptors; [6]
  IC50: 0.05 µM
[1]
  ED50: 12.2 mg/kg
[2]
  % antagonism of the amnesia: 98%
  antagonism of amnesia caused by scopolamine (in words): conclusive of an activity of the products according to the invention at a low dose
Mu receptors
  IC50: 7.18 µM
[4]
  Increase AUC 1 2 h: 41.6
  Increase in secretion: 7.0 micro-eq/cm/h
Kappa receptors; [5]
  IC50: 6.28 µM
